# Like-named read-outs stand apart in the source and are kept apart here.
# What was measured:
# [1] = test system: UACC-62; test: cells; conditions: Homo sapiens, UACC-62, 48 h
# [2] = test system: SW-620; test: cells; conditions: Homo sapiens, SW-620, 48 h
# [3] = test system: HT29; test: cells; conditions: Homo sapiens, HT-29, 48 h
# [4] = test system: UACC-257; test: cells; conditions: Homo sapiens, UACC-257, 48 h
# [5] = test system: NCI-H522; test: cells; conditions: Homo sapiens, NCI-H522, 48 h
# [6] = test system: NCI-H226; test: cells; conditions: Homo sapiens, NCI-H226, 48 h
# [7] = test system: RXF 393; test: cells; conditions: Homo sapiens, RXF 393, 48 h
# [8] = test system: NCI-H460; test: cells; conditions: Homo sapiens, NCI-H460, 48 h
# [9] = test system: NCI/ADR-RES; test: cells; conditions: Homo sapiens, 48 h
# [10] = test system: HCT-116; test: cells; conditions: Homo sapiens, HCT-116, 48 h
# [11] = test system: HL-60 (TB); test: cells; conditions: Homo sapiens, HL-60, 48 h
# [12] = test system: A549; test: cells; conditions: Homo sapiens, A549, 48 h
# [13] = test system: HCT-15; test: cells; conditions: Homo sapiens, HCT-15, 48 h
# [14] = test system: OVCAR-5; test: cells; conditions: Homo sapiens, OVCAR-5, 48 h
# [15] = test system: CAKI-1; test: cells; conditions: Homo sapiens, CAKI-1, 48 h
# [16] = test system: SN12C; test: cells; conditions: Homo sapiens, 48 h
# [17] = test system: SK-MEL-2; test: cells; conditions: Homo sapiens, SK-MEL-2, 48 h
# [18] = test system: ACHN; test: cells; conditions: Homo sapiens, 48 h
# [19] = test system: HCC-2998; test: cells; conditions: Homo sapiens, HCC 2998, 48 h
# [20] = test system: EKVX; test: cells; conditions: Homo sapiens, 48 h
# [21] = test system: U251; test: cells; conditions: Homo sapiens, U-251, 48 h
# [22] = test system: MALME-3M; test: cells; conditions: Homo sapiens, 48 h
# [23] = test system: HS 578T; test: cells; conditions: Homo sapiens, 48 h
# [24] = test system: LOX IMVI; test: cells; conditions: Homo sapiens, 48 h, read-out: Median Growth Inhibitory Concentration (GI50)
# [25] = test system: RPMI-7951 human melanoma; test: Neutral Red Assay, cell viability, RPMI-7951; conditions: Homo sapiens
# [26] = test system: SR; test: cells; conditions: Homo sapiens, 48 h
# [27] = test system: K-562; test: cells; conditions: Homo sapiens, K562, 48 h
# [28] = test system: MCF-7; test: cells; conditions: Homo sapiens, MCF7, 48 h
# [29] = test system: Sixty human tumor cell lines; test: cells; conditions: 48 h
# [30] = test system: Vascular Endothelial Growth Factor (VEGF) production by human melanoma cell line RPMI-7951; test: VEGF ELISA, RPMI-7951; conditions: for VEGF ELISA / VEGF: RPMI-7951; for VEGF ELISA: DMSO control 3713
# Protocol: RPMI-795 1, MDA-MB-231 and MDA-MB-435 cell lines were cultured in MEM-alpha medium (GIBCO-BRL, Long Island, N.Y.) containing 10% fetal bovine serum (RPMI-7951, MDA-MB-231) or 5% FBS (MDA-MB-435) at 37° C. and under 5% CO2/95% air. […] The cells were cultured in 48 well plates in all of the experiments described.
# A VEGF enzyme-linked immunosorbent assay (ELISA) was utilized to determine the effect of the compounds of the present invention on VEGF production of a variety of human cancer cell lines. For the VEGF assay, cells were plated at a concentration of 80,000 cells/well and cultured overnight. Compounds or vehicle (DMSO 0.1%) were then added and the plates were incubated for 72 hours. Supernatant was then collected from each well and frozen in a −80° C. freezer until needed. Cell viability was determined by Neutral Red Assay. VEGF ELISA Kit (R & D, Minneapolis, Minn.) was used to determine the amount of VEGF in the culture supernatants. The ELISA was carried out according to the manufacturer's procedure.
# [31] = read-out: Median Growth Inhibitory Concentration (GI50)
# [32] = read-out: Median Lethal Concentration (LC50)
# [33] = RPMI-7951, 72 h, read-out: Neutral Red Uptake, %
# [34] = RPMI-7951, read-out: Cell Viability
# [35] = Homo sapiens, RPMI-7951, 72 h, read-out: VEGF
smiles,measurement,setting,value
"O=C1C(=Cc2ccccc2O)CCCC1=Cc1ccccc1O [EF4, 2,6Bis(2-hydroxybenzylidene)cyclohexanone]",GI50,[1]; [31],1.5 µM
same,CC50,[1]; [32],6.1 µM
same,GI50,[2]; [31],2.7 µM
same,CC50,[2]; [32],76.3 µM
same,GI50,[3]; [31],2.2 µM
same,CC50,[3]; [32],29.1 µM
same,GI50,[4]; [31],2.9 µM
same,CC50,[4]; [32],57.8 µM
same,GI50,[5]; [31],2.9 µM
same,CC50,[5]; [32],> 100 µM
same,GI50,[6]; [31],19 µM
same,CC50,[6]; [32],> 100 µM
same,GI50,[7]; [31],0.5 µM
same,CC50,[7]; [32],30.8 µM
same,GI50,[8]; [31],2.3 µM
same,CC50,[8]; [32],40.2 µM
same,GI50,[9]; [31],2.7 µM
same,CC50,[9]; [32],> 100 µM
same,GI50,[10]; [31],2.2 µM
same,CC50,[10]; [32],13.2 µM
same,GI50,[11]; [31],1.9 µM
same,CC50,[11]; [32],53.5 µM
same,GI50,[12]; [31],2.6 µM
same,CC50,[12]; [32],> 100 µM
same,GI50,[13]; [31],2.2 µM
same,CC50,[13]; [32],> 100 µM
same,GI50,[14]; [31],2.6 µM
same,CC50,[14]; [32],55.9 µM
same,GI50,[15]; [31],3.1 µM
same,CC50,[15]; [32],> 100 µM
same,GI50,[16]; [31],2.3 µM
same,CC50,[16]; [32],21.5 µM
same,GI50,[17]; [31],2.4 µM
same,CC50,[17]; [32],25.3 µM
same,GI50,[18]; [31],3.3 µM
same,CC50,[18]; [32],32.7 µM
same,GI50,[19]; [31],1.7 µM
same,CC50,[19]; [32],5.9 µM
same,GI50,[20]; [31],2.3 µM
same,CC50,[20]; [32],37.2 µM
same,GI50,[21]; [31],2 µM
same,CC50,[21]; [32],18.5 µM
same,GI50,[22]; [31],2.3 µM
same,CC50,[22]; [32],24.3 µM
same,GI50,[23]; [31],5.1 µM
same,CC50,[23]; [32],> 100 µM
same,GI50,[24],2.2 µM
same,viability at 5 µM,[25]; [33],98%
same,viability at 20 µM,[25]; [33],4%
same,viability at 5 µM,[25]; [34],102%
same,viability at 20 µM,[25]; [34],38%
same,GI50,[26]; [31],1.6 µM
same,CC50,[26]; [32],> 100 µM
same,GI50,[27]; [31],2.5 µM
same,CC50,[27]; [32],91.4 µM
same,GI50,[28]; [31],2.7 µM
same,CC50,[28]; [32],44.1 µM
same,GI50,"[29]; read-out: Median Growth Inhibitory Concentration (GI50), Mean",2.4 µM
same,CC50,"[29]; read-out: Median Lethal Concentration (LC50), Mean",33.9 µM
same,activity at 5 µM,[30]; [35],70%
same,activity at 20 µM,[30]; [35],0%
same,VEGF ELISA,[30]; 5 μM,2159 pg/ml/well
same,VEGF,"[30]; 5 μM, DMSO control 4197 (EF-25: 1045)",2920 pg/mL
same,VEGF ELISA,[30]; 20 μM,199 pg/ml/well
same,VEGF,"[30]; 20 μM, DMSO control 4197",0 pg/mL

# From patent US7371766B2, “Curcumin analogs with anti-tumor and anti-angiogenic properties” (Emory University, priority 1999, dated 2008)
